Counter-ions that a name gives are not always drawn. Like-named read-outs stand apart in the source and are kept apart here.
Assays:
Toxicity (LD100) = type: in vivo
[1] = tested on: Pseudomonas aeruginosa strain 1; experiment: Activity in vitro: Minimum inhibitory concentration; type: cell-based
Source text: (§1) Activity in vitro: Minimum inhibitory concentration

[2] = tested on: Pseudomonas aeruginosa strain 2; experiment: as above; type: cell-based
Source text: as §1

Neisseria gonorrhoeae = experiment: as above; type: cell-based; details: read-out: Minimum inhibitory concentration
Source text: as §1

Enterobacter cloacae = experiment: as above; type: cell-based; details: read-out: Minimum inhibitory concentration
Source text: as §1

Haemophilus influenzae = experiment: as above; type: cell-based; details: read-out: Minimum inhibitory concentration
Source text: as §1

Serratia marcescens = experiment: as above; type: cell-based; details: read-out: Minimum inhibitory concentration
Source text: as §1

Escherichia coli = experiment: as above; type: cell-based; details: read-out: Minimum inhibitory concentration
Source text: as §1

Proteus mirabilis = experiment: as above; type: cell-based; details: read-out: Minimum inhibitory concentration
Source text: as §1

Staphylococcus aureus = experiment: as above; type: cell-based; details: read-out: Minimum inhibitory concentration
Source text: as §1

Proteus vulgaris = experiment: as above; type: cell-based; details: read-out: Minimum inhibitory concentration
Source text: as §1

[3] = in vitro, lactamase forming strain

Work on `CO/N=C(\C(=O)N[C@@H]1C(=O)N2C(C(=O)[O-])=C(CSc3nc(=O)cnn3C)CS[C@H]12)c1csc(N)n1.[Na+]` yielded an LD100 (Toxicity (LD100); i.v.) of 1000 mg/kg, an LD100 (Toxicity (LD100); p.o.) of over 5000 mg/kg and an LD100 (Toxicity (LD100); s.c.) of over 5000 mg/kg. The MIC ([1]; Pseudomonas aeruginosa, 1, read-out: Minimum inhibitory concentration) was 40 µg/mL, the MIC ([2]; Pseudomonas aeruginosa, 2, read-out: Minimum inhibitory concentration) was 40 µg/mL and the MIC (Neisseria gonorrhoeae) was 0.02 µg/mL. It also gave an MIC (Enterobacter cloacae) of 2.5 µg/mL, an MIC (Haemophilus influenzae) of 0.02 µg/mL and an MIC (Serratia marcescens) of 0.16 µg/mL. For the same molecule, the MIC (Escherichia coli) was 0.04 µg/mL, the MIC (Proteus mirabilis) was 0.04 µg/mL and the MIC (Staphylococcus aureus) was 2.5 µg/mL. For the same molecule, the MIC (Proteus vulgaris) was 0.02 µg/mL.
`CO/N=C(\C(=O)N[C@@H]1C(=O)N2C(C(=O)O)=C(CSc3nc(=O)c(C)nn3C)CS[C@H]12)c1csc(N)n1` [Product B, (6R,7R)-7-[2-(2-amino-4-thiazolyl-2-[(Z)-methoxyimino]acetamido]-3-[[(2,5-dihydro-2,6-dimethyl-5-oxo-as-triazin-3-yl)thio]methyl]-8-oxo-5-thia-1-azabicyclo[4.2.0]oct-2-ene-2-carboxylic acid sodium salt] gave an LD100 (Toxicity (LD100); i.v.) of 500 mg/kg, an LD100 (Toxicity (LD100); p.o.) of over 5000 mg/kg and an LD100 (Toxicity (LD100); s.c.) of over 4000 mg/kg. The MIC ([1]; in vitro, Pseudomonas aeruginosa strain 1, lactamase forming strain, read-out: Minimum inhibitory concentration) was 80 µg/mL, the MIC ([2]; in vitro, Pseudomonas aeruginosa strain 2, lactamase forming strain, read-out: Minimum inhibitory concentration) was 80 µg/mL and the MIC (Neisseria gonorrhoeae; in vitro) was 0.02 µg/mL. For the same molecule, the MIC (Enterobacter cloacae; [3]) was 2.5 µg/mL, the MIC (Haemophilus influenzae; in vitro) was 0.02 µg/mL and the MIC (Serratia marcescens; [3]) was 0.32 µg/mL. The MIC (Escherichia coli; [3]) was 0.08 µg/mL, the MIC (Proteus mirabilis; [3]) was 0.08 µg/mL and the MIC (Staphylococcus aureus; in vitro) was 2.5 µg/mL. The MIC (Proteus vulgaris; [3]) was 0.02 µg/mL.
